US20060154919A1, “Combination of a glycine transporter (GLYT1) inhibitor and an antipsychotic for the treatment of symptoms of schizophrenia as well as its preparation and use thereof” (priority 2004, published 2006)
Entries after “also recorded” stand apart in the source; their conditions may differ.

Columns and labels:
[1] = test system: extracellular dopamine in the striatum; assay: Microdialysis: extracellular dopamine in the rat striatum; type: in vivo; details: for dose-response of extracellular dopamine: ascending doses (COMPOUND NO. 1 0.63, 2.5, 10 mg/kg; risperidone 0.16, 0.63, 2.5 mg/kg)
Protocol: (§1) Compounds (as a Na salt) were stored, dissolved, and administered according to detailed instructions accompanying each compound. Compounds were dissolved in a solvent consisting of 10% BCD (beta cyclodextrin) and administered subcutaneously.
(§2) Male Sprague Dawley rats weighing 275-325 g at the start of the experiment were individually housed in a temperature-controlled colony room with a 12-h light/dark cycle. Food and water was available ad libitum throughout the experiment. The housing conditions and care of the animals were in accordance with the “Guide for the Care and Use of Laboratory Animals” (Institute of Laboratory Animal Resources on Life Sciences, National Research Council, 1996).
(§3) Guide cannula were stored in 95% ETOH prior to surgery, whereas surgical tools underwent heat sterilization (250 °C) immediately before each surgery. Rats were anesthetized using a ketamine hydrochloride (100 mg/kg, IP) xylazine (12 mg/kg) mixture. After adequate anesthesia had been determined (using toe and tail pinch procedures), rats were placed into a stereotaxic instrument. The skull region was wiped with a 2% Betadine solution and a rostrocaudal incision was made to expose the surface of the skull. Bilateral guide cannula (20 gauge; Plastics One) were chronically implanted over the medial striatum (A/P: +0.5, M/L: ±2.5, D/V: −2.0; Paxinos & Watson, 1998) and secured using four skull screws and cranioplastic cement. The cannula need to be implanted at an angle to obtain the minimum inter-cannula distance needed for our probe leash used during microdialysis sampling. Following surgery, body temperature was maintained using a heating pad and the rats were monitored until fully conscious. Rats were then individually housed and assessed daily by monitoring general activity, body weight, and feces. Rats were monitored for signs of an infection and cefazolin (100 mg/kg; intramuscular) was available as needed. Notation was made of any animal administered antibiotic.
(§4) Rats were given at least five days to recover prior to microdialysis sampling. Approximately 18 hr prior to sampling, a microdialysis probe (24 gauge; 2-3 mm exposed membrane; 13000 MWCO) encased in a spring leash and attached to a liquid swivel connected to a balancing arm was inserted into the guide cannula of an awake rat. The probe was secured in place by screwing a threaded portion of the probe leash onto the guide cannula. The rat was then placed into a behavioral chamber (Omnitech, Columbus Ohio) equipped with a fan and house light (10W), and food and water was available ad libitum. On the day of the experiment, dialysis buffer consisting of 5 mM glucose, 140 mM NaCl, 1.4 mM CaCl2, 1.2 mM MgCl2, and 0.15% phosphate buffer saline, pH 7.4, was perfused through the probe (2.0 μl/min) at least two hr prior to sample collection. Twenty-min dialysis samples were then collected for two hr to determine basal glycine levels. Rats were then injected (intraperitoneal) with vehicle or one dose of the test compound, and 30-min samples were collected for up to 10 hr. Samples were split for separate chromatographic evaluation of glycine and dopamine, and frozen (−80 °C) until analyzed.
(§5) Rats, with the dialysis probes in place, were given an overdose of pentobarbital, and the brains fixed by intracardiac infusion of PBS-formalin. Coronal brain sections were 100 μM thick and stained with cresyl violet to verify probe placements. Probes were left in place as the animal was perfused in order to check for the presence of blood in the probe tract.
For dopamine analysis, samples were placed in an ESA (Chelmsford, Mass.) Model 540 autosampler connected to an HPLC system with electrochemical detection. Separation was achieved by pumping the samples through a 15 cm C18 reversed phase column (ESA, Inc.) and then samples were reduced/oxidized using coulometric detection.

[2] = test system: extracellular glycine in the striatum; assay: Microdialysis: extracellular glycine in the rat striatum; type: in vivo; details: for dose-response of extracellular glycine: ascending doses (COMPOUND NO. 1 0.63, 2.5, 10 mg/kg; risperidone 0.16, 0.63, 2.5 mg/kg)
Protocol: as §1, §2, §3, §4, §5
The concentrations of glycine and dopamine in dialysate samples was determined using a Waters Alliance 2690 HPLC system with fluorometeric detection or an ESA coulometric electrochemical detection HPLC system, respectively. Dialyis samples were split between the two systems enabling both dopamine and glycine to be measured in each sample. A Waters Spherisorb ODS2 column (5 μM, 4.6×250 mm) was used to separate the amino acids.

[3] = COMPOUND NO. 1 alone, 10 mg/kg (highest dose), 10 mg/kg
[4] = risperidone alone, 0.16 mg/kg (lowest dose)

CN(C/C=C(/C#Cc1ccc(-c2ccoc2)cc1)c1ccccc1)CC(=O)O [COMPOUND NO. 1]
reduction in extracellular dopamine ([1]; COMPOUND NO. 1 alone, 0.63 mg/kg (lowest dose)): ~50%
effect on extracellular dopamine ([1]; COMPOUND NO. 1 alone, 0.63 mg/kg (lowest dose), 0.63 mg/kg): significant reduction; also recorded: reduced extracellular dopamine
effect on extracellular dopamine ([1]; COMPOUND NO. 1 alone, 2.5 mg/kg): normalized; also recorded: returned to normal
effect on extracellular dopamine [1, 3]: remained unaltered; also recorded: without effect
dose-response of extracellular dopamine [1]: biphasic
increase in extracellular glycine [2, 3]: 2.5 fold
dose-response of extracellular glycine [2]: dose-dependent increase; also recorded: dose-dependent elevation

Cc1nc2n(c(=O)c1CCN1CCC(c3noc4cc(F)ccc34)CC1)CCCC2 [risperidone, 3-[2-[4-(6-fluoro-1,2-benzisoxazol-3-yl)piperidino]ethyl]-2-methyl-6,7,8,9-tetrahydro-4H-pyrido-[1,2-a]pyrimidin-4-one, reference compound]
dose-response of extracellular dopamine [1]: dose-dependent elevation
threshold dose for elevation in extracellular dopamine ([1]; risperidone alone): 0.16 mg/kg
elevation in extracellular dopamine [1, 4]: approximately 50%
expected increase in extracellular dopamine ([1]; risperidone alone, 1.0 mg/kg, expected from FIGS. 1C-1D): 300%
increase in extracellular dopamine ([1]; risperidone alone, two higher doses (0.63 and 2.5 mg/kg)): 3-4 fold
dose-response of extracellular glycine [2]: dose-dependent elevation
threshold dose for elevation in extracellular glycine ([2]; risperidone alone): 0.16 mg/kg
effect on extracellular glycine [2, 4]: without effect
increase in extracellular glycine ([2]; risperidone alone, 2.5 mg/kg (highest dose)): 2.5 fold
effect on extracellular glycine ([2]; risperidone alone, at the dose examined in the combination (1.0 mg/kg)): modest rise
